Measurements published in PubChem BioAssay (NCI).
Several values for one entry are separate records, joined by “and”; a condition that tells them apart may be missing. Equal entries are not always repeated.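 Cultured in 96-well plates, cells were exposed to test compound for 48 hours across five concentrations. GI50 is the concentration that inhibits growth by half. TGI denotes the concentration required for complete inhibition of growth.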

How the values were obtained:
Experiment in all cases: NCI anticancer screen, dose series, 48 h
SNB-19 CNS = system: SNB-19 CNS
OVCAR-5 ovarian = system: OVCAR-5 ovarian
NCI-H23 lung = system: NCI-H23 lung
ACHN renal = system: ACHN renal
786-0 renal = system: 786-0 renal
NCI-H522 lung = system: NCI-H522 lung
HL-60(TB) leukemia = system: HL-60(TB) leukemia
MCF7 breast = system: MCF7 breast
HCT-116 colon = system: HCT-116 colon
RXF 393 renal = system: RXF 393 renal

| Structure (SMILES) | TGI (SNB-19 CNS) | TGI (OVCAR-5 ovarian) | TGI (NCI-H23 lung) | TGI (ACHN renal) | TGI (786-0 renal) | GI50 (NCI-H522 lung) | TGI (NCI-H522 lung) | GI50 (OVCAR-5 ovarian) | GI50 (HL-60(TB) leukemia) | TGI (HL-60(TB) leukemia) | GI50 (MCF7 breast) | TGI (MCF7 breast) | GI50 (ACHN renal) | GI50 (HCT-116 colon) | TGI (HCT-116 colon) | GI50 (786-0 renal) | TGI (RXF 393 renal) | GI50 (SNB-19 CNS) | GI50 (NCI-H23 lung) | GI50 (RXF 393 renal) |
| --- | --- | --- | --- | --- | --- | --- | --- | --- | --- | --- | --- | --- | --- | --- | --- | --- | --- | --- | --- | --- |
| CCOc1ccc(N=C2NC(=O)C(CC(=O)Nc3ccc(Cl)cc3Cl)S2)cc1 (stereo not given) | > 100 µM | > 100 µM | > 100 µM | > 100 µM | > 100 µM |  |  |  |  |  |  |  |  |  |  |  |  |  |  |  |
| Nc1cc2c(c3ccccc13)C(CCl)CN2C(=O)c1cc2cc(NC(=O)c3cc4ccccc4o3)ccc2[nH]1 (stereo not given) | 0.408 µM | 138 µM | 0.027 µM and 0.125 µM |  | > 1100 µM | > 0.11 µM | 0.00332 µM and < 0.11 µM | > 0.11 µM | > 0.11 µM | < 0.11 µM | > 0.11 µM | < 0.11 µM | 0.000208 µM | > 0.11 µM | > 1100 µM | > 0.11 µM |  |  |  |  |
| O=[N+]([O-])c1cccc(C=NC23CC4CC(CC(C4)C2)C3)c1 | > 100 µM | > 100 µM | > 100 µM | > 100 µM | > 100 µM |  | > 100 µM |  |  | 65.6 µM |  |  |  |  | > 100 µM |  | > 100 µM |  |  |  |
| COC(=O)CC12CC(NC(=O)c3csc([C@@H](C[C@H](C(C)C)N(C)C(=O)[C@@H](NC(=O)[C@H]4CCCCN4C)C(C)C)OC(C)=O)n3)(C1)C2 | > 33.3 µM | > 33.3 µM | > 33.3 µM | > 33.3 µM | > 33.3 µM | 0.00107 µM and 0.00333 µM | 0.00593 µM and 0.0149 µM | 0.0049 µM and 0.0165 µM | 0.00282 µM and 0.00685 µM | 0.0111 µM and 0.0181 µM | 0.00289 µM and 0.00405 µM | > 33.3 µM | 0.026 µM | 0.00337 µM and 0.00778 µM | > 33.3 µM | 0.00606 µM and 0.014 µM |  | 0.0031 µM and 0.0114 µM | 0.0098 µM and 0.0167 µM |  |
| CNC(=O)N(CCCC(NC(C)=O)C(=O)NCc1ccccc1)Cc1ccccc1 (stereo not given) | > 100 µM | > 100 µM | > 100 µM | > 100 µM | > 100 µM |  | > 100 µM |  |  |  |  |  |  |  | > 100 µM |  | > 100 µM |  |  |  |
| COC(=O)CCC(=O)C(CC(=O)OC)C(=O)CCC(=O)NCCc1ccccc1 (stereo not given) | > 100 µM | > 100 µM | > 100 µM | > 100 µM | > 100 µM |  | > 100 µM |  |  | > 100 µM |  |  |  |  | > 100 µM |  | > 100 µM |  |  |  |
| c1ccc2c(CNCCCN3CCN(CCCNCc4cccc5ccccc45)CC3)cccc2c1 |  | 5.32 µM | 23.6 µM | 6.85 µM | 4.18 µM |  | 2.99 µM |  |  | 3.45 µM |  |  |  |  | 2.83 µM |  | 2.4 µM |  |  |  |
| Cc1ccc(NC(=O)CC2SC(=Nc3cccc(Cl)c3C)NC2=O)cc1 (stereo not given) | > 100 µM | > 100 µM | 95.3 µM | > 100 µM | > 100 µM |  |  |  |  |  |  |  |  |  |  |  |  |  |  |  |
| N#CCC(=O)N/N=C(/C(=O)Nc1ccccc1)C1C(=O)N(c2ccccc2)N=C1N (stereo not given) | > 100 µM | > 100 µM | > 100 µM | > 100 µM | > 100 µM |  | > 100 µM |  |  | > 100 µM |  |  |  |  | > 100 µM |  | > 100 µM |  |  |  |
| COc1ncnn2ccc(-c3cnc4nc(C)n(Cc5nnc(C(C)F)o5)c4c3)c12 (stereo not given) | > 100 µM |  | 0.597 µM | > 100 µM | > 100 µM | 0.0859 µM | 0.363 µM | 0.343 µM | 0.367 µM |  |  |  | 0.24 µM | 0.041 µM | > 100 µM | 0.273 µM | 0.665 µM | 0.198 µM | 0.109 µM | 0.247 µM |
| CN(CC(=O)O)S(=O)(=O)c1ccc(Cl)cc1 | > 100 µM | > 100 µM | > 100 µM | > 100 µM | > 100 µM |  | > 100 µM |  |  | > 100 µM |  |  |  |  |  |  | > 100 µM |  |  |  |
| Nc1n[nH]c2ccc([C@H]3[C@@H]4C5CCC(C5)[C@@H]4c4c(ccc5[nH]ncc45)N3S(=O)(=O)C3CC3)cc12 (stereo not given in full) | > 38.3 µM | 26.1 µM | 9.31 µM | 22.5 µM | 22.3 µM | 0.183 µM | 2.56 µM | 0.272 µM | 0.12 µM | 0.996 µM | 0.2 µM | > 35.9 µM | 0.346 µM | 0.195 µM | > 9.99 µM | 0.366 µM |  | 0.21 µM | 0.225 µM |  |
| Cc1ccc(S(=O)OC2c3ccccc3Cc3ccccc32)cc1 (stereo not given) | 59 µM | 31.7 µM | 33.8 µM | 49 µM | 48.1 µM |  | 27.1 µM |  |  | 44 µM |  |  |  |  | 35.8 µM |  | 26.8 µM |  |  |  |
| Cc1cc2c(=O)cc(-c3ccc(O)cc3)oc2c(C(=O)O)c1C | > 100 µM | > 100 µM | > 100 µM | > 100 µM | > 100 µM |  | > 100 µM |  |  | > 100 µM |  |  |  |  | > 100 µM |  |  |  |  |  |
| CC(=O)OC1C(COC(N)=O)OC(n2c(-c3ccc(C)cc3)cc(-c3ccccc3)c(C#N)c2=O)C(OC(C)=O)C1OC(C)=O (stereo not given) | > 100 µM | > 100 µM | > 100 µM | > 100 µM | > 100 µM |  | > 100 µM |  |  |  |  |  |  |  | > 100 µM |  | > 100 µM |  |  |  |
| S=C1NC(c2ccccc2)=NC(Cc2ccccc2)(c2ccccc2)N1c1ccccc1 (stereo not given) | > 100 µM | > 100 µM | > 100 µM | > 100 µM | > 100 µM |  |  |  |  | > 100 µM |  |  |  |  | > 100 µM |  | > 100 µM |  |  |  |
| CCOC(=O)c1sc(Nc2cc(Cl)ccc2Cl)nc1C | > 100 µM | > 100 µM | > 100 µM | > 100 µM | > 100 µM |  | > 100 µM |  |  | > 100 µM |  |  |  |  | > 100 µM |  | > 100 µM |  |  |  |
| N#CC1(C#N)C2C=CC(C3CC=CC32)C1(C#N)C#N (stereo not given) | > 50 µM | 16.8 µM | 19.8 µM | 7.09 µM and 15.3 µM | 3.36 µM and 7.76 µM |  | 3.18 µM |  |  | 2.87 µM |  |  | 8.44 µM | 7.85 µM | 3.4 µM and 15.7 µM | 2.19 µM | 8.29 µM and 13.4 µM |  |  |  |
| CO[C@@H]1[C@H](N(C)C(=O)c2ccccc2)C[C@@H]2O[C@]1(C)n1c3ccccc3c3c4c(c5c6ccccc6n2c5c31)C(=O)NC4=O | > 100 µM |  | > 100 µM | > 100 µM | > 100 µM |  |  |  | > 100 µM | > 100 µM | 1.84 µM | > 100 µM | 0.838 µM | 0.638 µM | > 100 µM | 0.744 µM |  | > 100 µM | 0.842 µM |  |
| OCC(O)COc1ccc(F)cc1 (stereo not given) | > 100 µM | > 100 µM | > 100 µM | > 100 µM | > 100 µM |  | > 100 µM |  |  | > 100 µM |  |  |  |  | > 100 µM |  | > 100 µM |  |  |  |
